# Data: US20120122935A1, “COMPOSITIONS AND METHODS FOR TREATING NECROTIZING ENTEROCOLITIS” (NATIONWIDE CHILDREN'S HOSPITAL, INC., priority 2007, published 2012)
# Marks after values point to notes of the source that are not given here.
# How the values were obtained:
# [1] = test system: Human fetal intestinal epithelial cells (FHS741NT); experiment: in vitro model of immature intestinal wound restitution (scrape wound plus LPS); type: cell-based; details: 50 mg/ml nicotinamide after wounding and LPS administration, FIG. 14
# Procedure: We have established cell culture conditions for neonatal human intestinal epithelial cells (IEC), which we have developed as a platform for investigating cellular responses and identifying potential protection strategies. Human fetal intestinal epithelial cells (FHS741NT), passage seven or less, were seeded (40,000 cells/ml) in poly-1-lysine coated 8-chamber slides (Labtek II; Nunc, Rochester, N.Y.) in media (DMEM containing 10% FBS, L-glutamine (2 mM), EGF (30 ng/ml), and insulin (10 μg/ml)) and allowed to reach confluence. A wound was created in the cell monolayer using a specific cell scraper device attached to a microscope. The microscope stage controls allow the creation of a reproducible straight wound in each slide chamber (width 500 μm). After wounding, media was replaced with media (DMEM with 10% FBS, L-glutamine (2 mM)) containing the appropriate treatment compound. […]
# Digital images of wounds were captured using a 10× objective on an inverted microscope (Olympus, Melville, N.Y.) with an attached digital camera (Diagnostic Instruments, Sterling Heights, Mich.). […] For each subsequent image, the AOI was placed over the position of the original wound and the area occupied by cells was measured. […] Results were expressed as mean % closure where % closure=area of wound occupied by cells/area of original wound. […]
# newborn rat model of NEC = newborn rat model of NEC (formula feeding, hypoxia, hypothermia, LPS); type: in vivo; details: for Percent of Pups with NEC (any grade) / Percent of Pups with NEC Grade >2: one oral dose each day, n=8; for overall survival of pups exposed to the rat NEC model: nicotinamide treated vs control pups, FIG. 8
# Source text: We have established valuable preclinical animal models that mimic intestinal injury in NEC. (Caplan M S, Hedlund E, Adler L, et al. Role of asphyxia and feeding in a neonatal rat model of necrotizing enterocolitis. Pediatr Pathol. November-December 1994; 14(6):1017-1028.) The model involves exposing neonatal rat pups to hypoxia, hypothermia, and formula feeding, leading to physiological stress and intestinal injury that pathologically is very similar to NEC in infants. Pups are delivered by cesarean section at E20 from timed pregnant dams. Pups are fed every 3 h with one skipped feed at 4 am (7 times/day) by oral gavage with 100 ul of a hypertonic formula (Similac and Esbilac). At 8 h post-delivery, pups are treated with 2 mg/kg LPS orally with feeding. Beginning on DOL 1, pups are fed every 3 h and subjected to hypoxic (2 min in 100% nitrogen) and hypothermal (10 min at 4° C.) stress twice daily immediately after feeds. Pups are sacrificed at DOL 4, or when discomfort warrants. Upon sacrifice, the distal ileum is collected in two sections. One section is immediately fixed in 10% neutral buffered formalin, and the other is snap-frozen in liquid nitrogen. Tissues are fixed for 48 h before histological processing and embedding in paraffin.
# Each photomicrograph represents a different severity grading score of intestinal injury in this model as follows: (A)=Grade 0 or normal, (B)=Grade 1 or minimal intestinal damage, (C)=Grade 2 or minimal/modest intestinal damage, (D)=Grade 3 or moderate intestinal injury, (E) Grade 4 or severe intestinal injury. This system is based on the previously published intestinal injury grading system for the newborn rat intestinal model of NEC induced by formula feeding-hypoxia-hypothermia.
# [2] = doses of 500 mg/kg or more in animal preparations; cited from earlier work
smiles,measurement,setting,value
"NC(=O)c1cccnc1 [Nicotinamide, nicotinamide]",wound healing (epithelial restitution),[1],improves wound healing
same,wound healing (epithelial restitution),[1]; listed as nicotinamide,improved wound healing
same,Percent of Pups with NEC (any grade),newborn rat model of NEC; 50 mg/kg nicotinamide,12.5%*
same,Percent of Pups with NEC Grade >2,newborn rat model of NEC; 50 mg/kg nicotinamide,12.5%
same,Percent of Pups with NEC (any grade),newborn rat model of NEC; 500 mg/kg nicotinamide,0%*
same,Percent of Pups with NEC Grade >2,newborn rat model of NEC; 500 mg/kg nicotinamide,0%
same,overall survival of pups exposed to the rat NEC model,newborn rat model of NEC,improved overall survival
same,overall survival of pups exposed to the rat NEC model,newborn rat model of NEC; listed as nicotinamide,improves survival
same,evidence of NEC Grade 2 or greater,newborn rat model of NEC; one oral dose daily at 500 mg/kg,no evidence of NEC Grade 2 or greater
same,protection against development of NEC / intestinal injury,newborn rat model of NEC; one oral dose of 50 or 500 mg/kg each day,strikingly protective against the development of any NEC
same,reported toxicities,[2],little or no reported toxicities
